Assay results from US10370369B2, “Acid addition salt of 3-aminoquinuclidine which does not exhibit deliquescence” (YUKI GOSEI KOGYO CO. LTD., priority 2015, dated 2019).

Experiment: Deliquescence Test (Experimental Example 1, salts of racemic 3-aminoquinuclidine)
Format: physicochemical
Conditions: about 0.5 g allowed to stand for 1 hour, 25 to 27° C., humidity of 76 to 82%, visual evaluation
Description: racemic 3-aminoquinuclidine.dihydrochloride of reagent, and the acid addition salts (about 0.5 g) of racemic 3-aminoquinuclidine obtained in Examples 1 to 6 and Comparative Examples 1 to 9 were allowed to stand for 1 hour, under the condition of 25 to 27° C., and a humidity of 76 to 82%, and a deliquescence was observed by a visual evaluation.

Row | SMILES | Deliquescence
1 | Br.Br.NC1CN2CCC1CC2 (racemic) [Comparative Example 1, racemic 3-aminoquinuclidine-dihydrobromide] | Gradually
2 | NC1CN2CCC1CC2.O=S(=O)(O)O (racemic) [Comparative Example 2, racemic 3-aminoquinuclidine.monosulfate] | Gradually
3 | NC1CN2CCC1CC2.O=[N+]([O-])O.O=[N+]([O-])O (racemic) [Comparative Example 3, racemic 3-aminoquinuclidine.dinitrate] | Gradually
4 | CC(=O)O.CC(=O)O.NC1CN2CCC1CC2 (racemic) [Comparative Example 4, racemic 3-aminoquinuclidine.diacetate] | Immediately
5 | CCC(=O)O.NC1CN2CCC1CC2 (racemic) [Comparative Example 5, racemic 3-aminoquinuclidine.monopropionate] | Immediately
6 | NC1CN2CCC1CC2.O=C(O)c1ccccc1.O=C(O)c1ccccc1 (racemic) [Comparative Example 6, racemic 3-aminoquinuclidine.dibenzoate] | Gradually
7 | NC1CN2CCC1CC2.O=C(O)/C=C\C(=O)O (racemic) [Comparative Example 7, racemic 3-aminoquinuclidine.monomaleate] | Gradually
8 | NC1CN2CCC1CC2.NC1CN2CCC1CC2.NC1CN2CCC1CC2.O=C(O)CC(O)(CC(=O)O)C(=O)O.O=C(O)CC(O)(CC(=O)O)C(=O)O (racemic) [Comparative Example 8, racemic 3-aminoquinuclidine.2/3 citrate] | Immediately
9 | CS(=O)(=O)O.NC1CN2CCC1CC2 (racemic) [Comparative Example 9, racemic 3-aminoquinuclidine.monomesylate] | Gradually
10 | NC1CN2CCC1CC2 (racemic) [Example 1, racemic 3-aminoquinuclidine.sesquiphosphate] | Not deliquesce
11 | NC1CN2CCC1CC2.O=C(O)/C=C/C(=O)O (racemic) [Example 2, racemic 3-aminoquinuclidine.monofumarate] | Not deliquesce
12 | NC1CN2CCC1CC2.O=C(O)c1ccc(C(=O)O)cc1 (racemic) [Example 3, racemic 3-aminoquinuclidine.monoterephthalate] | Not deliquesce
13 | NC1CN2CCC1CC2.O=C(O)C(=O)O (racemic) [Example 4, racemic 3-aminoquinuclidine.monooxalate] | Not deliquesce
14 | Cc1ccc(S(=O)(=O)O)cc1.NC1CN2CCC1CC2 (racemic) [Example 5, racemic 3-aminoquinuclidine.mono-p-toluenesulfonate] | Not deliquesce
15 | CC1(C)C2CCC1(CS(=O)(=O)O)C(=O)C2.NC1CN2CCC1CC2 (racemic) [Example 6, racemic 3-aminoquinuclidine.mono-(±)-10-camphorsulfonate] | Not deliquesce
16 | Cl.Cl.NC1CN2CCC1CC2 (racemic) [Reagent, racemic 3-aminoquinuclidine.dihydrochloride] | Immediately

Experiment: Deliquescence Test (Experimental Example 3, salts of (S)-3-aminoquinuclidine)
Format: physicochemical
Conditions: about 0.5 g allowed to stand for 1 hour, 24 to 26° C., humidity of 75 to 78%, visual evaluation
Description: The acid addition salts (about 0.5 g) of (S)-3-aminoquinuclidine obtained in Examples 14 to 19, and Comparative Examples 18 to 19 were allowed to stand for 1 hour, under the conditions of 24 to 26° C., and a humidity of 75 to 78%, and a deliquescence was observed by a visual evaluation.

Row | SMILES | Deliquescence
17 | N[C@@H]1CN2CCC1CC2.O=[N+]([O-])O.O=[N+]([O-])O [Comparative Example 18, (S)-3-aminoquinuclidine.dinitrate] | Gradually
18 | CC(=O)O.CC(=O)O.N[C@@H]1CN2CCC1CC2 [Comparative Example 19, (S)-3-aminoquinuclidine.diacetate] | Immediately
19 | N[C@@H]1CN2CCC1CC2.N[C@@H]1CN2CCC1CC2.O=P(O)(O)O.O=P(O)(O)O.O=P(O)(O)O [Example 14, (S)-3-aminoquinuclidine.sesquiphosphate] | Not deliquesce
20 | N[C@@H]1CN2CCC1CC2.O=S(=O)(O)O [Example 15, (S)-3-aminoquinuclidine.monosulfate] | Not deliquesce
21 | N[C@@H]1CN2CCC1CC2.O=C(O)/C=C/C(=O)O [Example 16, (S)-3-aminoquinuclidine.monofumarate] | Not deliquesce
22 | N[C@@H]1CN2CCC1CC2.O=C(O)c1ccc(C(=O)O)cc1 [Example 17, (S)-3-aminoquinuclidine.monoterephthalate] | Not deliquesce
23 | N[C@@H]1CN2CCC1CC2.O=C(O)C(=O)O [Example 18, (S)-3-aminoquinuclidine.monooxalate] | Not deliquesce
24 | Cc1ccc(S(=O)(=O)O)cc1.N[C@@H]1CN2CCC1CC2 [Example 19, (S)-3-aminoquinuclidine.mono-p-toluenesulfonate] | Not deliquesce
25 | Cl.Cl.N[C@@H]1CN2CCC1CC2 [Referential Example 4, (S)-3-aminoquinuclidine.dihydrochloride] | Immediately

Experiment: Deliquescence Test (Experimental Example 2, salts of (R)-3-aminoquinuclidine)
Format: physicochemical
Conditions: about 0.5 g allowed to stand for 1 hour, 24 to 25° C., humidity of 74 to 76%, visual evaluation
Description: The acid addition salts (about 0.5 g) of (R)-3-aminoquinuclidine obtained in Examples 7 to 13, Referential Example 2, and Comparative Examples 10 to 17 were allowed to stand for 1 hour, under the conditions of 24 to 25° C. and a humidity of 74 to 76%, and a deliquescence was observed by a visual evaluation.

Row | SMILES | Deliquescence
26 | Br.Br.N[C@H]1CN2CCC1CC2 [Comparative Example 10, (R)-3-aminoquinuclidine-dihydrobromide] | Gradually
27 | N[C@H]1CN2CCC1CC2.O=[N+]([O-])O.O=[N+]([O-])O [Comparative Example 11, (R)-3-aminoquinuclidine.dinitrate] | Gradually
28 | CC(=O)O.CC(=O)O.N[C@H]1CN2CCC1CC2 [Comparative Example 12, (R)-3-aminoquinuclidine.diacetate] | Immediately
29 | CCC(=O)O.N[C@H]1CN2CCC1CC2 [Comparative Example 13, (R)-3-aminoquinuclidine.monopropionate] | Immediately
30 | N[C@H]1CN2CCC1CC2.O=C(O)c1ccccc1.O=C(O)c1ccccc1 [Comparative Example 14, (R)-3-aminoquinuclidine.dibenzoate] | Immediately
31 | N[C@H]1CN2CCC1CC2.O=C(O)/C=C\C(=O)O [Comparative Example 15, (R)-3-aminoquinuclidine.monomaleate] | Gradually
32 | N[C@H]1CN2CCC1CC2.N[C@H]1CN2CCC1CC2.N[C@H]1CN2CCC1CC2.O=C(O)CC(O)(CC(=O)O)C(=O)O.O=C(O)CC(O)(CC(=O)O)C(=O)O [Comparative Example 16, (R)-3-aminoquinuclidine.2/3citrate] | Immediately
33 | CS(=O)(=O)O.N[C@H]1CN2CCC1CC2 [Comparative Example 17, (R)-3-aminoquinuclidine.monomesylate] | Gradually
34 | N[C@H]1CN2CCC1CC2.N[C@H]1CN2CCC1CC2.O=P(O)(O)O.O=P(O)(O)O.O=P(O)(O)O [Example 7, (R)-3-aminoquinuclidine.sesquiphosphate] | Not deliquesce
35 | N[C@H]1CN2CCC1CC2.O=S(=O)(O)O [Example 8, (R)-3-aminoquinuclidine.monosulfate] | Not deliquesce
36 | N[C@H]1CN2CCC1CC2.O=C(O)/C=C/C(=O)O [Example 9, (R)-3-aminoquinuclidine.monofumarate] | Not deliquesce
37 | N[C@H]1CN2CCC1CC2.O=C(O)c1ccc(C(=O)O)cc1 [Example 10, (R)-3-aminoquinuclidine.monoterephthalate] | Not deliquesce
38 | N[C@H]1CN2CCC1CC2.O=C(O)C(=O)O [Example 11, (R)-3-aminoquinuclidine.monooxalate] | Not deliquesce
39 | Cc1ccc(S(=O)(=O)O)cc1.N[C@H]1CN2CCC1CC2 [Example 12, (R)-3-aminoquinuclidine.mono-p-toluenesulfonate] | Not deliquesce
40 | CC1(C)C2CCC1(CS(=O)(=O)O)C(=O)C2.N[C@H]1CN2CCC1CC2 [Example 13, (R)-3-aminoquinuclidine.mono-(−)-10-camphorsulfonate] | Not deliquesce
41 | Cl.Cl.N[C@H]1CN2CCC1CC2 [Referential Example 2, (R)-3-aminoquinuclidine.dihydrochloride] | Immediately
